Like-named read-outs stand apart in the source and are kept apart here.

The results in this text go back to patent publication EP0575844B1, “Hydroxamic acid derivatives and pharmaceutical compositions thereof” (F. HOFFMANN-LA ROCHE AG, priority 1992, dated 1993).

For experiment [1], the target named is T1, Stromelysin (Homo sapiens, UniProt P08254). The experiment in a line: Stromelysin (Test A), 14C-acetylated b-casein substrate digestion. The class given is biochemical. The settings on record: read-out: Test A IC50 (mol). As to the method:
Prostromelysin was purified from human fibroblast culture medium by prostromelysin antibody affinity chromatography [Ganja-Smith Z, Nagase H, Woessner J F Jr., Biochem J. 1989, vol 285 (1), pp 115-119]. The latent pro-enzyme was activated by incubation with trypsin (5 mg/ml) at 25°C for 2 hours and after this time the trypsin was inactivated using a ten-fold excess of soya bean trypsin inhibitor. The inhibitory activity of the aforementioned hydroxamic acid derivatives was determined using ^14C-acetylated b-casein substrate. The stromelysin (5 nM) was added to a solution of substrate (4 mg/ml) in 25 mM Tris HCl buffer, pH 7.5, containing 10 mM CaCl2 and 0.05% Brij®. The solution obtained was incubated at 37°C for 20 hours. Enzyme digestion of the substrate was terminated by the addition of 45% trichloroacetic acid and the precipitated undigested substrate was pelleted by centrifugation at 10000 g for 0.25 hour. The supernatant was aspired and ^14C activity was determined by liquid scintillation spectrometry. The IC50 is that concentration of hydroxamic acid derivative in the enzyme digestion which reduces the substrate cleavage to 50% of that achieved by the enzyme alone.

In experiment [2] the target is T1, Stromelysin. The experiment in a line: biochemical. The protocol:
The latent pro-enzyme (30 µg/ml) was activated by incubation with trypsin (0.5 µg/ml) for 30 minutes at 25°C and then the trypsin was inactivated using a twenty-fold excess of trypsin inhibitor. The inhibitory activity of the hydroxamic acid derivatives was determined using the fluorescent peptide substrate (7-methoxycoumarin-4-yl)acetyl-L-prolyl-L-leucyl-L-alanyl-L-[…]-[3-(2,4-dinitrophenyl)-L-2,3-diaminopropyl]-L-arginyl-L-arginine. The stromelysin (final concentration 35 ng/ml) was added to a solution of substrate ([…]) and varying concentrations of hydroxylamine derivative in 50mM Tris HCl buffer, pH 7.5 containing 200 mM Na Cl, 10mM CaCl2, 0.05% Brij 35 and 5% methanol. This solution was incubated for 16 hours at 37°C. Product formation was determined by spectrofluorometry using an excitation wavelength of 325 nm and an emission wavelength of 395 nm. The IC50 is that concentration of hydroxylamine derivative which reduces the substrate cleavage to 50% of that achieved by the enzyme alone.

In a further experiment the target is gelatinase B (Homo sapiens, UniProt P14780). The experiment in a line: biochemical. As to the method:
Pro-gelatinase B was purified from human neutrophils by first separating the neutrophils from human blood by density centrifugation and dextran sedimentation. The separated neutrophils were disrupted by combined treatment with 0.05% Triton X-100® and sonification Cell debris was then removed by high speed centrifugation. […] The gelatinase B was incubated overnight at 37°C with 1mM p-aminophenylmercuric acetate. The inhibitory activity of the present hydroxamine derivatives was determined using the synthetic substrate N-acetyl-Pro-Gln-Gly-Leu-Leu-Gly ethyl ester for this enzyme. The gelatinase was added to a solution of 0.25 mM of substrate in 50mM borate buffer (pH 7.5) containing 1 mM calcium chloride and a known concentration of hydroxylamine derivative. The resulting solution was incubated at 37°C for 16 hours. Enzymic activity was terminated by addition of an equal volume of 2% (w/v) sodium hydrogen carbonate solution in 50% aqueous methanol containing 0.05% (w/v) of picrylsulphonic acid. The solution obtained was incubated at 37°C for a further 1 hour and the reaction was then terminated and stabilized by acidification with 1N hydrochloric acid. The concentration of trinitrophenyl-Leu-Leu-Gly ethyl ester formed was determined by spectrophotometry at 335 nm. The IC50 is that concentration of hydroxylamine derivative which reduces substrate cleavage to 50% of that achieved by the enzyme alone.

Where [3] appears, read: gelatinase B from human neutrophils, 0.25 mM substrate, pH 7.5, 37°C, 16 hours, * = IC50 limited by mutual depletion of the enzyme, read-out: Test C IC50 (mol).

Chain of gelatinase B (P14780 94-707): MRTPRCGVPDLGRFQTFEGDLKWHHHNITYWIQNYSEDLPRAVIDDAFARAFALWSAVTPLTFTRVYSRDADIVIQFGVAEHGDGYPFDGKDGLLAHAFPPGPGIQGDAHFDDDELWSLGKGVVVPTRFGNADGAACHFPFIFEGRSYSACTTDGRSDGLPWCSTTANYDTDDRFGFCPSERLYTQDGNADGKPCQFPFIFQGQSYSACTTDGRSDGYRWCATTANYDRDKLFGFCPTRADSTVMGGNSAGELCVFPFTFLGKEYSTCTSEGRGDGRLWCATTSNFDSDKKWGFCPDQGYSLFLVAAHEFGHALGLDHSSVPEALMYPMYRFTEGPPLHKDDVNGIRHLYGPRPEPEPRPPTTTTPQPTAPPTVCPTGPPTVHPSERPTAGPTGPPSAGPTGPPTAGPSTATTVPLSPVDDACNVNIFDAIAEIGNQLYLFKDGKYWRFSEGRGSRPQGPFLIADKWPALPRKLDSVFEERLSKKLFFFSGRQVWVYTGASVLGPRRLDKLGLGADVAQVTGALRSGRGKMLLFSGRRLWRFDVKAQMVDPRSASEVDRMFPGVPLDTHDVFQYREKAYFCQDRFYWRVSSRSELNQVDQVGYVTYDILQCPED
T1 sequence (P08254 100-477): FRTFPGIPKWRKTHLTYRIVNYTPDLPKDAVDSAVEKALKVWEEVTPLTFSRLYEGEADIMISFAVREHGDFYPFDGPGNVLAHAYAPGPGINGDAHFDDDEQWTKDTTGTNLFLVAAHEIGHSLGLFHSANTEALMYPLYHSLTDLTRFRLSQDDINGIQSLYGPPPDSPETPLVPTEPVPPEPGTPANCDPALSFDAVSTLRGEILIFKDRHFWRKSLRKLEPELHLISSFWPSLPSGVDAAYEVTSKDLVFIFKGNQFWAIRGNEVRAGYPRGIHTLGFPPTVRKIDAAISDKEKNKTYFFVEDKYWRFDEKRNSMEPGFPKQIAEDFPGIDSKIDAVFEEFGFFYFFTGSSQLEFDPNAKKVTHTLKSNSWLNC

As to `CCCCCCCC(CC(=O)NO)C(=O)N[C@@H](CC(C)C)C(=O)N[C@@H](CC(C)C)C(=O)NCC` (single isomer, unassigned) [Compound A, [4-(N-Hydroxyamino)-2(R or S)-heptylsuccinyl]-L-leucyl-L-leucine ethylamide], the IC50 turned out to be 33 nM on Stromelysin [1], 12.5 nM against Stromelysin [2] and 320 nM on gelatinase B.

As to `CCCCCCCCCC(CC(=O)NO)C(=O)N[C@@H](CC(C)C)C(=O)N[C@@H](CC(C)C)C(=O)NCC` (single isomer, unassigned) [Compound B, [4-(N-Hydroxyamino)-2(R or S)-nonylsuccinyl]-L-leucyl-L-leucine ethylamide], the figures for the IC50 at Stromelysin [1], against Stromelysin [2] and on gelatinase B were 26 nM, 9.3 nM and 50 nM, respectively.

Take `CCCCCCCC(C(=O)N[C@@H](CC(C)C)C(=O)N[C@@H](CC(C)C)C(=O)NCC)[C@H](C)C(=O)NO` (single isomer, unassigned) [Compound C, [4-(N-Hydroxyamino)-2(R or S)-heptyl-3(S)-methylsuccinyl]-L-leucyl-L-leucine ethylamide]: the IC50 worked out at 11 nM on Stromelysin [1] and 2.3 nM at Stromelysin [2].

Take `CCCCCCC[C@@H](C(=O)N[C@@H](CC(C)C)C(=O)N[C@@H](CC(C)C)C(=O)NCC)C(CN1C(=O)c2ccccc2C1=O)C(=O)NO` (single isomer, unassigned) [Compound D, [4-(N-Hydroxyamino)-2(R)-heptyl-3(R or S)-(phthalimidomethyl)succinyl]-L-leucyl-L-leucine ethylamide]: the IC50 on Stromelysin [1] was 10 nM; against Stromelysin [2], 0.59 nM.

For the molecule `CCCCCCC[C@@H](C(=O)N[C@H](C(=O)NC)C(C)(C)C)C(CN1C(=O)c2ccccc2C1=O)C(=O)NO` (single isomer, unassigned) [Compound G, [4-(N-Hydroxyamino)-2(R)-heptyl-3(R or S)-(phthalimidomethyl)succinyl]-L-tert-butylglycine methylamide], the IC50 came to 1.2 nM on Stromelysin [2] (stromelysin 35 ng/ml, fluorescent peptide substrate, pH 7.5, 37°C, 16 hours, * = IC50 limited by mutual depletion of the enzyme, read-out: Test B IC50 (mol)) and 0.9 nM on gelatinase B (setting [3]).

`CCCCCCC[C@@H](C(=O)N[C@@H](CC(C)C)C(=O)N[C@@H](CC(C)C)C(=O)NCC)C(CCCc1ccccc1)C(=O)NO` (single isomer, unassigned) [Compound H, [4-(N-Hydroxyamino) 2(R)-heptyl-3(R or S)-(3-phenylpropyl)succinyl]-L-leucyl-L-leucine ethylamide] returned an IC50 on Stromelysin [2] of 0.66 nM.

Turning to `CCCCCCCC(CC(=O)NO)C(=O)N[C@@H](Cc1ccccc1)C(=O)NC` (stereo partly drawn) [Compound F, [4-(N-Hydroxyamino)-2(RS)-heptylsuccinyl]-L-phenylalanine methylamide], the IC50 at Stromelysin [2] was determined as 22 nM; on gelatinase B (setting [3]), 3.2 nM.

The term IC50 denotes the concentration needed to halve the response being measured.
